Where a SMILES comes first, the peptide text is derived from it. Bridges are numbered along the chain shown (N, C = ends). [ ]: non-standard residue; d: D form. The star is where a group is joined. 2Nal = N[C@@H](Cc1ccc2ccccc2c1)C(=O)O; dNMeaIle = CC[C@H](C)[C@@H](NC)C(=O)O; NMe2Val = CC(C)[C@@H](C(=O)*)N(C)C; NMeLys(Me) = CNCCCC[C@H](NC)C(=O)O; NMeI = CC[C@H](C)[C@H](NC)C(=O)O; NMeL = CN[C@@H](CC(C)C)C(=O)O; dHiv = CC(C)[C@@H](O)C(=O)O; NMeA = CN[C@@H](C)C(=O)O; dNMeA = CN[C@H](C)C(=O)O
Tested on: A549 cells
Assay: Growth inhibition assay (MTS) in A549 cells
Type: cell-based
Settings: for IC50: read-out: IC50 (concentration for 50% growth inhibition of A549 cells), MTS assay, 72 h treatment, 0.5% DMSO, absorbance 490 nm, n = 3
Procedure: Growth Inhibition AssayS3
A549 cells were cultured in Dulbecco’s modified Eagle’s medium (DMEM; Sigma) supplemented with 10% (v/v) fetal bovine serum at 37 °C in a 5% CO2-incubator. Growth inhibition assays using A549 cells were performed in 96-well plates (BD Falcon). A549 cells were seeded at 1000 cells/well in 90 μL of culture media, respectively, and were cultured for 24 h. Chemical compounds in DMSO were diluted 50-fold with the culture medium in advance. 30 μL of the chemical diluents were added.
The final volume of DMSO in the medium was equal to 0.5% (v/v). The cells under chemical treatment were incubated for a further 72 h. The wells in the plates were washed twice with the cultured medium without phenol-red. After 1-hour incubation with 100 μL of the medium, the cell culture in each well was supplemented with 20 μL of the MTS reagent (Promega), followed by incubation for additional 40 min. Absorbance at 490 nm of each well was measured using a Wallac 1420 ARVO SX multilabel counter (Perkin Elmer). Three experiments were performed per condition and the averages of inhibition rates in each condition were evaluated to determine IC50 values using the GraphPad Prism software.

Compound	IC50 [µM]	other results
CC[C@H](C)[C@H]1C(=O)N[C@@H](C)C(=O)N(C)[C@@H](CC(C)C)C(=O)N[C@@H](Cc2ccc(OC)cc2)C(=O)N(C)CCCC[C@H](N(C)C(=O)[C@H](CC(C)C)N(C)C(=O)[C@H](C)NC(=O)[C@H](OC(=O)[C@H](C(C)C)N(C)C)C(C)C)C(=O)N(C)[C@@H](C)C(=O)N1C [8a] (NMe2Val-[dHiv]A[NMeL][NMeLys(Me)][NMeA][NMeI]A[NMeL]Y(Me); lactam 4-C)	2.2 ± 0.6	–
CC[C@H](C)[C@@H]1C(=O)N[C@@H](C)C(=O)N(C)[C@@H](CC(C)C)C(=O)N[C@@H](Cc2ccc(OC)cc2)C(=O)N(C)CCCC[C@H](N(C)C(=O)[C@H](CC(C)C)N(C)C(=O)[C@H](C)N(C)C(=O)[C@H](OC(=O)[C@H](C(C)C)N(C)C)C(C)C)C(=O)N(C)[C@@H](C)C(=O)N1C [9b] (NMe2Val-[dHiv][NMeA][NMeL][NMeLys(Me)][NMeA][dNMeaIle]A[NMeL]Y(Me); lactam 4-C)	> 10	–
CC[C@H](C)[C@H]1C(=O)N[C@@H](C)C(=O)N(C)[C@@H](CC(C)C)C(=O)N[C@@H](Cc2ccc(OC)cc2)C(=O)N(C)CCCC[C@H](N(C)C(=O)[C@H](CC(C)C)N(C)C(=O)[C@H](C)N(C)C(=O)[C@H](OC(=O)[C@H](C(C)C)N(C)C)C(C)C)C(=O)N(C)[C@@H](C)C(=O)N1C [2a, [MeAla^3, MeLys(Me)^5, MeAla^6]-CbA] (NMe2Val-[dHiv][NMeA][NMeL][NMeLys(Me)][NMeA][NMeI]A[NMeL]Y(Me); lactam 4-C)	–	times less active than the natural product 1 (ratio of IC50 values to 1): approximately 300 times
CC[C@H](C)[C@H]1C(=O)N[C@@H](C)C(=O)N(C)[C@@H](CC(C)C)C(=O)N[C@@H](Cc2ccc3ccccc3c2)C(=O)N(C)CCCC[C@H](N(C)C(=O)[C@H](CC(C)C)N(C)C(=O)[C@H](C)N(C)C(=O)[C@H](OC(=O)[C@H](C(C)C)N(C)C)C(C)C)C(=O)N(C)[C@@H](C)C(=O)N1C [10q] (NMe2Val-[dHiv][NMeA][NMeL][NMeLys(Me)][NMeA][NMeI]A[NMeL][2Nal]; lactam 4-C)	0.28 ± 0.03	–
CC[C@H](C)[C@H]1C(=O)N[C@@H](C)C(=O)N(C)[C@@H](CC(C)C)C(=O)N[C@@H](Cc2ccc(OC)cc2)C(=O)N(C)CCCC[C@H](N(C)C(=O)[C@H](CC(C)C)N(C)C(=O)[C@H](C)N(C)C(=O)[C@H](OC(=O)[C@H](C(C)C)N(C)C)C(C)C)C(=O)N(C)[C@H](C)C(=O)N1C [9a] (NMe2Val-[dHiv][NMeA][NMeL][NMeLys(Me)][dNMeA][NMeI]A[NMeL]Y(Me); lactam 4-C)	> 10	–
CC[C@H](C)[C@@H]1NC(=O)[C@H](C)N(C)C(=O)[C@@H](N(C)C(=O)[C@H](CC(C)C)N(C)C(=O)[C@H](C)N(C)C(=O)[C@H](OC(=O)[C@H](C(C)C)N(C)C)C(C)C)CCCCN(C)C(=O)[C@H](Cc2ccc(OC)cc2)NC(=O)[C@H](CC(C)C)N(C)C(=O)[C@H](C)NC1=O [8e] (NMe2Val-[dHiv][NMeA][NMeL][NMeLys(Me)][NMeA]IA[NMeL]Y(Me); lactam 4-C)	–	fold decrease in cytotoxicity compared with peptide 2a (ratio of IC50 values to 2a): nine-fold or more lower

— paper PMC8762706, “Design of Coibamide A Mimetics with Improved Cellular Bioactivity” (ACS Medicinal Chemistry Letters, 2021)
